According to PubChem BioAssay (NCI):
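Compound exposure: 48 hours, 5 concentrations, 96-well plates. Definition used: TGI = concentration required for complete inhibition of growth.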

Key:
Test in all cases: NCI tumour cell line growth inhibition, 48 h
[1] = test system: XF 498 CNS
[2] = test system: HOP-18 NSCLC
[3] = test system: KM20L2 colon
[4] = test system: DLD-1 colon
[5] = test system: LXFL 529 NSCLC
[6] = test system: SNB-78 CNS
[7] = test system: DMS 114 small cell lung
[8] = test system: MDA-N
[9] = test system: RXF-631 renal

SMILES | TGI [1] [µM] | TGI [2] [µM] | TGI [3] [µM] | TGI [4] [µM] | TGI [5] [µM] | TGI [6] [µM] | TGI [7] [µM] | TGI [8] [µM] | TGI [9] [µM]
COc1ccc(/C=C2\CCC(CN(C)C)C2=O)cc1 (stereo not drawn) | 16.3 | 19.9 | 36.8 | 12.5 | 4.17 | 51.9 | 21.6 | 9.09 | –
Cn1c(=O)ccc2cc(C(=O)c3ccccc3)ccc21 | > 100 | > 100 | > 100 | > 100 | > 100 | – | 81.1 | – | > 100
O=C1OC(=O)C2C1C1(c3ccccc3)OC2(c2ccccc2)c2c(Br)c(Br)c(Br)c(Br)c21 (stereo not drawn) | > 100 | > 100 | > 100 | > 100 | > 100 | > 100 | > 100 | – | –
CC12CCC(C)(c3cc(O)c(O)cc31)c1cc(O)c(O)cc12 | 34 | – | 39.2 | 45.7 | 22.2 | 39.2 | 31.1 | – | 55.6
O=C(O)c1cccc(F)c1C(=O)c1ccc2ccccc2c1 | – | – | – | – | – | – | – | > 100 | –
Cc1ccc(Sc2cc([N+](=O)[O-])cc(Sc3ccc(C)cc3)c2Sc2ccc(C)cc2)cc1 | > 100 | – | > 100 | > 100 | > 100 | > 100 | > 100 | – | –
Cn1c(=O)c2nc3sc4ccccc4c(=N)n3c2n(C)c1=O | > 100 | > 100 | – | > 100 | > 100 | > 100 | > 100 | – | > 100
Fc1cccc(C2SCc3nc4ccccc4n32)c1 (stereo not drawn) | – | – | – | > 100 | > 100 | > 100 | > 100 | – | > 100
CC(=O)NC1C(OCc2ccccc2)OC(COC(=O)CCCCCCCCCCNC(=O)CCNc2ccc([N+](=O)[O-])c3[nH]c4ccc(O)cc4c(=O)c23)C(O)C1OC(C)C(=O)N[C@H](C(=O)N[C@H](CCC(=O)O)C(N)=O)C(C)C (stereo partly drawn) | – | > 100 | > 100 | > 100 | > 100 | > 100 | > 100 | – | > 100
NCCCSCC(=O)O | – | – | > 100 | – | > 100 | > 100 | > 100 | – | –
CC(=O)O[C@H]1CC[C@@]2(C)[C@@H](CC[C@@H]3[C@@H]2CC(=O)[C@@]2(C)[C@H]3C[C@@H]3CC(C)=CC(=O)[C@@H]32)C1 | – | – | – | – | – | – | – | > 100 | –
O=CN/C=C\c1cc(O)ccc1O | 28.8 | 30.7 | > 62.4 | 31.6 | 22.8 | > 100 | 52.3 | – | –
CC(=O)Oc1cc(OC(C)=O)c(OC(C)=O)c2c1CC1C(=O)C3(CCc4ccccc43)C(=O)C1C2 (stereo not drawn) | 27.9 | 43.6 | 48.3 | 35.2 | 28 | 58.2 | 29.4 | – | –
O=c1cc(/C=C/c2ccccc2)c2ccc(O/C(=C\c3ccccc3)c3nc4ccccc4c(=O)o3)cc2o1 | 70.5 | – | > 100 | > 100 | 63.9 | 70.8 | 71.7 | – | > 100
CC(NC(=O)C1(N)CCCC1)C(=O)O (stereo not drawn) | – | – | – | – | – | – | – | > 100 | –
COc1cccc(/C=N/[N-]C(N)=O)c1[O-].[Cu+2].c1ccncc1 | – | – | > 100 | – | – | – | – | – | –
NC1=C(O)/C(=N/NS(=O)(=O)c2ccccc2)C(c2cccc(Cl)c2)O1 (stereo not drawn) | – | > 100 | > 85.6 | 31.7 | 35.8 | > 100 | 42.1 | 37.9 | –
O=C1OC(/C=C/c2ccccc2)C(=O)C1=O (stereo not drawn) | > 100 | > 100 | > 100 | > 100 | > 100 | – | – | – | –
O=P1(NCCCl)OCCC(OO)N1CCCl (stereo not drawn) | – | > 100 | > 100 | 50.5 | – | 86.7 | > 100 | > 100 | –
CCC1(O)CC(c2ccccc2)N(C)C(c2ccccc2)C1 (stereo not drawn) | – | – | > 100 | > 100 | > 100 | > 100 | > 100 | – | > 100
COc1ccccc1NC(=O)C(=O)C(C#N)CC(C)(C)C=O (stereo not drawn) | – | – | – | – | – | – | – | > 100 | –
C=C1[C@@H]2CCC(C)(C)[C@H]1CCC(=O)[C@@H]2C(=O)OC | > 100 | – | > 100 | – | > 100 | – | > 100 | – | > 100
